Measurements from patent US9708333B2, “Fused bicyclic 1,2,4-triazine compounds as TAM inhibitors” (Incyte Corporation, priority 2015, dated 2017).

How the values were obtained:
phosphor-Axl = phosphor-Axl (Homo sapiens (Human), UniProt P30530); test: TAM Enzymatic Assay (HTRF), phosphor-Axl; format: biochemical; settings: 5.1 nM autophosphorylated Axl, 60 min; read-out: Phos-Axl IC50
Tyro3 = Tyro3 (Homo sapiens (Human), UniProt Q06418); test: TAM Enzymatic Assay (HTRF), Tyro3; format: biochemical; settings: 0.366 nM Tyro3, 60 min
Procedure: The kinase assay buffer contained 50 mM HEPES, pH7.5, 10 mM MgCl2, 1 mM EGTA, 0.01% NP-40 and 2 mM DTT. 0.1 ul test compounds dissolved in DMSO were transferred from compound plates to white 384-well assay plates (Greiner [sequence] plates). […] 4 ul enzyme solution (or assay buffer for the enzyme blank) was added to the appropriate wells in each plate, and then 4 ul/well substrate solution was added to initiate the reaction. The plate was protected from light and incubated at room temperature for 60 min. […] The plate was incubated for 1 h at room temperature, and HTRF (homogenous time resolved fluorescence) signal was measured on a PHERAstar FS plate reader (BMG labtech). Percentage of inhibition was calculated for each concentration and IC50 value was generated from curve fitting with GraphPad Prism software.

c-Mer = c-Mer (Homo sapiens (Human), UniProt Q12866); test: TAM Enzymatic Assay (HTRF), c-Mer; format: biochemical; settings: 0.0625 nM c-Mer, ATP-containing substrate solution, 60 min
PI3Kδ = PI3Kδ (Homo sapiens (Human), UniProt O00329); settings: cited from earlier work
JAK1 = JAK1 (Homo sapiens (Human), UniProt P23458); settings: 1 mM ATP; cited from earlier work

PI3Kδ, sequence (O00329 whole entry, species assumed): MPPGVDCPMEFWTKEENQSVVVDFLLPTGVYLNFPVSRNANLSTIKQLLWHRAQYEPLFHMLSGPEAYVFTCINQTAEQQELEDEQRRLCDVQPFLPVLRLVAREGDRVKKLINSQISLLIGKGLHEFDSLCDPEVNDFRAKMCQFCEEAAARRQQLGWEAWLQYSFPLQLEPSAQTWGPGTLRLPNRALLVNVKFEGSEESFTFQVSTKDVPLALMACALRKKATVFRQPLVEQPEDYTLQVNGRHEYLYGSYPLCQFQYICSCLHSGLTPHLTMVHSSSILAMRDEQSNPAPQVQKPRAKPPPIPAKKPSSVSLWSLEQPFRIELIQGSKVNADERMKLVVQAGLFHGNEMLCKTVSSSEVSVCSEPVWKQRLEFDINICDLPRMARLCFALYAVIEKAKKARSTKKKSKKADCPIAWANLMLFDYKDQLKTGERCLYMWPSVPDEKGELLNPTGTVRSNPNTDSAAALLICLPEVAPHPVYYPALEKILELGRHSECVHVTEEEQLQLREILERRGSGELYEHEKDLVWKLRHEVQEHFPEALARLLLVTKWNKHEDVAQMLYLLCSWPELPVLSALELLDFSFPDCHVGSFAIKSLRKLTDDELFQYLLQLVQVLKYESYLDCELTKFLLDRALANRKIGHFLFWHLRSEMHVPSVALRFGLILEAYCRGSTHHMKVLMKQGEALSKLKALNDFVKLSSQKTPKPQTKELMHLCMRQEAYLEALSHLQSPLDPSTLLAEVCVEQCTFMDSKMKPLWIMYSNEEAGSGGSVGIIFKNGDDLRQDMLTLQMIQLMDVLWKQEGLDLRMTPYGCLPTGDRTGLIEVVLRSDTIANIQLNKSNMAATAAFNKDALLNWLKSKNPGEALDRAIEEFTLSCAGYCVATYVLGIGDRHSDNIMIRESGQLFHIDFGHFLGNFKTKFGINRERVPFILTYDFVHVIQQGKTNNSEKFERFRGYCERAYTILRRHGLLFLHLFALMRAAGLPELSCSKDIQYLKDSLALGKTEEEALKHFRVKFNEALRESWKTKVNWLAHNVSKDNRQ
PI3Kδ, sequence (P27986 whole entry partner, species assumed): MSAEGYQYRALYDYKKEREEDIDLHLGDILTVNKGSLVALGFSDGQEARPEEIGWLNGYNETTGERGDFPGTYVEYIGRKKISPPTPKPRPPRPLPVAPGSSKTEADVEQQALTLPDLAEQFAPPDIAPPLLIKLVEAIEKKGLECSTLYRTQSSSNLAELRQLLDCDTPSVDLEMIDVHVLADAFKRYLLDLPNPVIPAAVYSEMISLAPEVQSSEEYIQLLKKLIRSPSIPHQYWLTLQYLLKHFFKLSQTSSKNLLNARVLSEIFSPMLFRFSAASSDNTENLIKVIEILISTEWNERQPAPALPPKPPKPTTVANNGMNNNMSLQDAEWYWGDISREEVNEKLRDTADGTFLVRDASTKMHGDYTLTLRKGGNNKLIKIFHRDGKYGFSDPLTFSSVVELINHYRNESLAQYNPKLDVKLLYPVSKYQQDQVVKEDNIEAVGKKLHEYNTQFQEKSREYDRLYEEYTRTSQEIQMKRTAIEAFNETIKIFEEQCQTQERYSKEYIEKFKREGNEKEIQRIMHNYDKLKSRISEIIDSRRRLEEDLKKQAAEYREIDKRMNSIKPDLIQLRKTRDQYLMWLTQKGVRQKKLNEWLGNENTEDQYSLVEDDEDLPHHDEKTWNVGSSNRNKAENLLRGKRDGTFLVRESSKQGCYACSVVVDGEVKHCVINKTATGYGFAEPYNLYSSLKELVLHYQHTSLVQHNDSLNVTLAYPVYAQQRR
c-Mer, sequence (Q12866 21-999): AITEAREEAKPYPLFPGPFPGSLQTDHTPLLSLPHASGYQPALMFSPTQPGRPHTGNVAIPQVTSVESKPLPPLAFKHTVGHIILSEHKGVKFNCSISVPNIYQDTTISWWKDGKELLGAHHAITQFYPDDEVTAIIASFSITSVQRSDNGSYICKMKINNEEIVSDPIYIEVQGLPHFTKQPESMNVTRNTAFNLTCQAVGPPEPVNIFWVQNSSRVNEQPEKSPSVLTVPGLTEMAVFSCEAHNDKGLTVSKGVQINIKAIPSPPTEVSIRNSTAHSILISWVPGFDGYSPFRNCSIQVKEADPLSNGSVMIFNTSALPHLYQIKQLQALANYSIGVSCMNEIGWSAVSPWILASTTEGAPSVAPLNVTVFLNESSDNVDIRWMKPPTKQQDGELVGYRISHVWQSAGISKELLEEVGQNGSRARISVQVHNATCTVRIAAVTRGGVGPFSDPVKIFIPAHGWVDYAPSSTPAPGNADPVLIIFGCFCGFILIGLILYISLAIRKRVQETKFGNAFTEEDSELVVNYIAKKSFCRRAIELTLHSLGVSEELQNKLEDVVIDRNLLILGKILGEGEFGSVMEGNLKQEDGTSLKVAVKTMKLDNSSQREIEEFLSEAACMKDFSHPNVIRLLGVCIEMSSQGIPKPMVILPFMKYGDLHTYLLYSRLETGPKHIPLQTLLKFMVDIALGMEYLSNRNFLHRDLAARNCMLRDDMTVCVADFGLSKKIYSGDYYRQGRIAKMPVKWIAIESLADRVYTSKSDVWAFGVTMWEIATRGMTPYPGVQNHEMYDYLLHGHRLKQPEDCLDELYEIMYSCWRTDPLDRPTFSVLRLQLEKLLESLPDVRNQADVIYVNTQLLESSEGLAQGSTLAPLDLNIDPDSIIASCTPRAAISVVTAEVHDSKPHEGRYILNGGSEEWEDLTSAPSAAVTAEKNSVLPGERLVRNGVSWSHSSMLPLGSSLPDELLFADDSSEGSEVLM
Tyro3, sequence (Q06418 41-890): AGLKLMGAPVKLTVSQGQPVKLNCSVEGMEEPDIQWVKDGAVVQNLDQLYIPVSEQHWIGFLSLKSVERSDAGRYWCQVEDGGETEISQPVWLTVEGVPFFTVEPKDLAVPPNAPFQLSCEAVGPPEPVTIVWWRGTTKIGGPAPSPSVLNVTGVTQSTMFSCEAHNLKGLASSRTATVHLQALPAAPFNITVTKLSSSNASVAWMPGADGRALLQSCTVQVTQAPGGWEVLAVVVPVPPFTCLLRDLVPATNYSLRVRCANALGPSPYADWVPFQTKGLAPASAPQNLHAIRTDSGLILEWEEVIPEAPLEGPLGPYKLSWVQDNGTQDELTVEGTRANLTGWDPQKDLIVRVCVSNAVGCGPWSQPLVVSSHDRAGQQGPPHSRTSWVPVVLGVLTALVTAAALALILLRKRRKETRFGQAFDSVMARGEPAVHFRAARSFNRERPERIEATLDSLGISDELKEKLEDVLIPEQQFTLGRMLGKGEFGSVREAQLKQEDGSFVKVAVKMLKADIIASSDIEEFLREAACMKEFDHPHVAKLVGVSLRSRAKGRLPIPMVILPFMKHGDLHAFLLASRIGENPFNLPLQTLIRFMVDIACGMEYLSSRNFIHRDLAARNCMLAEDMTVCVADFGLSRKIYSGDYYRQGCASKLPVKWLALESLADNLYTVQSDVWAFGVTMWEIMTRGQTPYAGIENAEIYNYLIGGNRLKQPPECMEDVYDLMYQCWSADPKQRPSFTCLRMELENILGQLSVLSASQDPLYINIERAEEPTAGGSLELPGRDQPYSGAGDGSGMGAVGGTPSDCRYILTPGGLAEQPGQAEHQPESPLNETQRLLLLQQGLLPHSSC
phosphor-Axl, sequence (P30530 26-894): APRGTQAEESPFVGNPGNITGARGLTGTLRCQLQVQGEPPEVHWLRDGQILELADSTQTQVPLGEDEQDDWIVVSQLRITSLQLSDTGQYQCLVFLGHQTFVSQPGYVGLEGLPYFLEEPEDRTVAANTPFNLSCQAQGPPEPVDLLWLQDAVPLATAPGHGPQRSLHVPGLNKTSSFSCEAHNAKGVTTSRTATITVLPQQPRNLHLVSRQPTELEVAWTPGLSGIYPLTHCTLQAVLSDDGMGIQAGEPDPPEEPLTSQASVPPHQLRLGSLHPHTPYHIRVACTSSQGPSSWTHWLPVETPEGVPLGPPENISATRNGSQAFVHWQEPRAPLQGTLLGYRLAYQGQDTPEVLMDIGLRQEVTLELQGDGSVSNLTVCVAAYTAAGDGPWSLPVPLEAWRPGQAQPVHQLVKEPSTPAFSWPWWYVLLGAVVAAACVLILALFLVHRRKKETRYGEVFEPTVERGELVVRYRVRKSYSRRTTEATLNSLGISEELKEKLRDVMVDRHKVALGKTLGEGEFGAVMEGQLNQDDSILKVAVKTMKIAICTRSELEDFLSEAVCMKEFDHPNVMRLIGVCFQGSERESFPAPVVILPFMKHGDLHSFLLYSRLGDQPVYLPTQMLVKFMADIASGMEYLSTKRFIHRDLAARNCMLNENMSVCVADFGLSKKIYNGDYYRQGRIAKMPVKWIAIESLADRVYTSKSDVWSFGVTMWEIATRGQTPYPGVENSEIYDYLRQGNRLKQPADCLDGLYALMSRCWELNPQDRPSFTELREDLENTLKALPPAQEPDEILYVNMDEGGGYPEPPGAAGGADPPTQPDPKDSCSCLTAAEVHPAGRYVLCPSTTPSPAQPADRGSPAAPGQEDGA

Molecule	IC50 (Tyro3) [µM]	IC50 (c-Mer) [µM]	further results
CCCCNc1ncc2c(-c3ccc(N4CCOCC4)c(F)c3)nc(C3CCC(O)CC3)n2n1 (single isomer, unassigned) [7 (1st peak), 4-[2-(Butylamino)-5-(3-fluoro-4-morpholin-4-ylphenyl)imidazo[5,1-f][1,2,4]triazin-7-yl]cyclohexanol]	0.5 to 1		IC50 (phosphor-Axl): 0.1 to 0.5 µM
CCCCNc1ncc2c(-c3ccc(N4CCOCC4)c(F)c3)nc(C3CCC(O)CC3)n2n1 (single isomer, unassigned) [7 (2nd peak), 4-[2-(Butylamino)-5-(3-fluoro-4-morpholin-4-ylphenyl)imidazo[5,1-f][1,2,4]triazin-7-yl]cyclohexanol]			IC50 (phosphor-Axl): > 1 µM
CCOc1c(C(C)n2nc(C)c3c(N)ncnc32)cc(Cl)c(F)c1C1CNC(=O)C1 (single isomer, unassigned) [Compound 32b, 4-{3-[1-(4-amino-3-methyl-1H-pyrazolo[3,4-d]pyrimidin-1-yl)ethyl]-5-chloro-2-ethoxy-6-fluorophenyl}pyrrolidin-2-one]			IC50 (PI3Kδ): < 0.05 µM
CCOc1c(C(C)n2nc(C)c3c(N)ncnc32)cc(Cl)c(F)c1C1CNC(=O)C1 (single isomer, unassigned) [Compound 32c, 4-{3-[1-(4-amino-3-methyl-1H-pyrazolo[3,4-d]pyrimidin-1-yl)ethyl]-5-chloro-2-ethoxy-6-fluorophenyl}pyrrolidin-2-one]			IC50 (PI3Kδ): < 0.05 µM
CCCCNc1ncc2c(-c3ccc(CN4CCN(C)CC4)cc3)nc([C@H]3CC[C@H](O)CC3)n2n1 [1 (1st peak, trans-), trans-4-(2-(Butylamino)-5-{4-[(4-methylpiperazin-1-yl)methyl]phenyl}imidazo[5,1-f][1,2,4]triazin-7-yl)cyclohexanol]	0.1 to 0.5	≤ 0.1	IC50 (phosphor-Axl): ≤ 0.1 µM
CCCCNc1ncc2c(-c3ccc(CN4CCOCC4)cc3)nc([C@H]3CC[C@@H](O)CC3)n2n1 [2 (2nd peak, cis-), cis-4-{2-(Butylamino)-5-[4-(morpholin-4-ylmethyl)phenyl]imidazo[5,1-f][1,2,4]triazin-7-yl}cyclohexanol]	0.1 to 0.5	≤ 0.1	IC50 (phosphor-Axl): 0.1 to 0.5 µM
CCCCNc1ncc2c(-c3ccc(CO)cc3)nc([C@H]3CC[C@@H](O)CC3)n2n1 [3 (2nd peak, cis-), cis-4-{2-(Butylamino)-5-[4-(hydroxymethyl)phenyl]imidazo[5,1-f][1,2,4]triazin-7-yl}cyclohexanol]		> 1	
COc1c(C(C)n2nc(C)c3c(N)ncnc32)cc(Cl)c(C#N)c1C1CN(C[C@H](C)O)C1 (stereo partly drawn) [Compound 29, 4-[1-(4-amino-3-methyl-1H-pyrazolo[3,4-d]pyrimidin-1-yl)ethyl]-6-chloro-2-{1-[(2S)-2-hydroxypropyl]azetidin-3-yl}-3-methoxybenzonitrile]			IC50 (PI3Kδ): < 0.05 µM
COc1c(C(C)n2nc(C)c3c(N)ncnc32)cc(Cl)c(C#N)c1C1CN(CCO)C1 (stereo not drawn) [Compound 30, 4-[1-(4-amino-3-methyl-1H-pyrazolo[3,4-d]pyrimidin-1-yl)ethyl]-6-chloro-2-[1-(2-hydroxyethyl)azetidin-3-yl]-3-methoxybenzonitrile]			IC50 (PI3Kδ): < 0.05 µM
trans-7-((4-Aminocyclohexyl)methyl)-5-(4-fluorophenyl)-N-(3-phenylpropyl)imidazo [5,1-f][1,2,4]triazin-2-amine [Example 14]			IC50 (JAK1): < 0.01 µM

Second part, led by results:

IC50 (Tyro3) [µM]	IC50 (c-Mer) [µM]	Molecule	further results
	≤ 0.1	CCCCNc1ncc2c(-c3cccc(CO)c3)nc(C3CCC(O)CC3)n2n1 (single isomer, unassigned) [8 (1st peak), 4-{2-(Butylamino)-5-[3-(hydroxymethyl)phenyl]imidazo[5,1-f][1,2,4]triazin-7-yl}cyclohexanol]	
0.1 to 0.5	≤ 0.1	CCCCNc1ncc2c(-c3ccc(CN4CCN(C)CC4)cc3)nc([C@H]3CC[C@@H](O)CC3)n2n1 [1 (2nd peak, cis-), cis-4-(2-(Butylamino)-5-{4-[(4-methylpiperazin-1-yl)methyl]phenyl}imidazo[5,1-f][1,2,4]triazin-7-yl)cyclohexanol]	
0.1 to 0.5	≤ 0.1	CCCCNc1ncc2c(-c3ccc(CN4CCOCC4)cc3)nc([C@H]3CC[C@H](O)CC3)n2n1 [2 (1st peak, trans-), trans-4-{2-(Butylamino)-5-[4-(morpholin-4-ylmethyl)phenyl]imidazo[5,1-f][1,2,4]triazin-7-yl}cyclohexanol]	
	≤ 0.1	CCCCNc1ncc2c(-c3ccc(CO)cc3)nc([C@H]3CC[C@H](O)CC3)n2n1 [3 (1st peak, trans-), trans-4-{2-(Butylamino)-5-[4-(hydroxymethyl)phenyl]imidazo[5,1-f][1,2,4]triazin-7-yl}cyclohexanol]	
